Results: ChEMBL document CHEMBL5291721, “A preclinical secondary pharmacology resource illuminates target-adverse drug reaction associations of marketed drugs” (Nat Commun, 2023)

Tests used:
Adenosine receptor A1 = molecular target: T1, Adenosine receptor A1 (Homo sapiens, UniProt P30542)
T1 sequence (P30542 whole entry): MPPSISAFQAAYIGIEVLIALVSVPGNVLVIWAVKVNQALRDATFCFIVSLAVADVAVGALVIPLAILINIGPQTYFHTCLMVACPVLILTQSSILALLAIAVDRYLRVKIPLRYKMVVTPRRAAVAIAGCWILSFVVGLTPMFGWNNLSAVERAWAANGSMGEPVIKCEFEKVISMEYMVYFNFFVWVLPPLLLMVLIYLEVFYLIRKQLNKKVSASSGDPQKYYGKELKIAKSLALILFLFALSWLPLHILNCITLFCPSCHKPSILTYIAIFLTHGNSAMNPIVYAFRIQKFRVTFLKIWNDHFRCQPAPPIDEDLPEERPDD

[1] = molecular target: Gamma-aminobutyric acid receptor subunit alpha-1/alpha-2/beta-2/gamma-2 (Homo sapiens, UniProt P14867+P18507+P47869+P47870); assay type: functional, cell-based
Chain of Gamma-aminobutyric acid receptor subunit alpha-1/alpha-2/beta-2/gamma-2 (P14867 whole entry): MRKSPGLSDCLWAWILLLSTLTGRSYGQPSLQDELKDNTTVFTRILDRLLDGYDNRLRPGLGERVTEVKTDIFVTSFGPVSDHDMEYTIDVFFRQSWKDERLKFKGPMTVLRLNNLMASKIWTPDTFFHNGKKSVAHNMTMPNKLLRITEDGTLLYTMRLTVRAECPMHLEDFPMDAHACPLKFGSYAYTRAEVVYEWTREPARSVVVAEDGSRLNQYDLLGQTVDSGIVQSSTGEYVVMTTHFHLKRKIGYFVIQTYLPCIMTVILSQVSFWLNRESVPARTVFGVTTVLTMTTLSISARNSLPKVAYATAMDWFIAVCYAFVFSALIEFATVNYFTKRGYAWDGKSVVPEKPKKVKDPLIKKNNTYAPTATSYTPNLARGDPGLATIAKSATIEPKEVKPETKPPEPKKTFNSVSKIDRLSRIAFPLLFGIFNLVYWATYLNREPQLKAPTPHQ
Chain of Gamma-aminobutyric acid receptor subunit alpha-1/alpha-2/beta-2/gamma-2 (P47870 whole entry): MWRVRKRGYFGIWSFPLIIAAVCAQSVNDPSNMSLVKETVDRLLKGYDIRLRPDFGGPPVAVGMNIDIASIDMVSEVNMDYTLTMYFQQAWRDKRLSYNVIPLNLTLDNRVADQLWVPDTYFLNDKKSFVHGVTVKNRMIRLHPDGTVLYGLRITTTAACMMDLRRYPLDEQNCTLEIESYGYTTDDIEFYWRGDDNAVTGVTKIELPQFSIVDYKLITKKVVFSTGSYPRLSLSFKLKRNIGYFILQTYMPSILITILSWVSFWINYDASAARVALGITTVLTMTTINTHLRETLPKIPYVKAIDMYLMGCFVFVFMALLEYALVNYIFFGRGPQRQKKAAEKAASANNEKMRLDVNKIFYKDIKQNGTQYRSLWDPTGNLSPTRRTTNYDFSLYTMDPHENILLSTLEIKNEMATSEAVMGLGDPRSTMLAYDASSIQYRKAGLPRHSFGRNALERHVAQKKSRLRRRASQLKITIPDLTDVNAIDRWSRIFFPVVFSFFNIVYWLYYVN
Chain of Gamma-aminobutyric acid receptor subunit alpha-1/alpha-2/beta-2/gamma-2 (P18507 whole entry): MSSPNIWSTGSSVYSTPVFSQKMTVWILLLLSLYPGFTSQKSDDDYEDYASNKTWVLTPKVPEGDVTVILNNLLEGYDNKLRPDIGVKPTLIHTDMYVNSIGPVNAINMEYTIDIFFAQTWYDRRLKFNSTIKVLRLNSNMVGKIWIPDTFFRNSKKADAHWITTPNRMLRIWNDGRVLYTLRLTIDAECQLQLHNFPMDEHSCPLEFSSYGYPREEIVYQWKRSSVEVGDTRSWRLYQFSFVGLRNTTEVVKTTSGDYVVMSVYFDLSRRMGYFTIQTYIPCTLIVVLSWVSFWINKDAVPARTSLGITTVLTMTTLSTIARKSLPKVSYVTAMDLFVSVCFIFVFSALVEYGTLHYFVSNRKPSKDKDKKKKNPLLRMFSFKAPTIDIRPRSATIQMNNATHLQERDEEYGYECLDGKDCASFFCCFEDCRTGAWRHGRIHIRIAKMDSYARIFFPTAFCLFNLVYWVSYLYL
Chain of Gamma-aminobutyric acid receptor subunit alpha-1/alpha-2/beta-2/gamma-2 (P47869 whole entry): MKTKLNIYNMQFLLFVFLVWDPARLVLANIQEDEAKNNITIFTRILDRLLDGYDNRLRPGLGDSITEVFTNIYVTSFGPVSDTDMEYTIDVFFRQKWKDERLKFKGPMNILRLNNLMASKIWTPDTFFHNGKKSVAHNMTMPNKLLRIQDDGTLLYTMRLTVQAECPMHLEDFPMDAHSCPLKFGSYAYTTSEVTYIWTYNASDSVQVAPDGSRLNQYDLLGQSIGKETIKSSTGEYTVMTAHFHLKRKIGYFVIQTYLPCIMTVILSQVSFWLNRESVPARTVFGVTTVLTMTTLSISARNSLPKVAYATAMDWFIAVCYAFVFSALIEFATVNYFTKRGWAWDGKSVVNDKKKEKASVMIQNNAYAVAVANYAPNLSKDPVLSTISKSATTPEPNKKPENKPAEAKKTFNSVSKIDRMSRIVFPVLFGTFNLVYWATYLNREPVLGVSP

[2] = molecular target: T2, Alpha-1A adrenergic receptor (Homo sapiens, UniProt P35348)
T2 sequence (P35348 whole entry): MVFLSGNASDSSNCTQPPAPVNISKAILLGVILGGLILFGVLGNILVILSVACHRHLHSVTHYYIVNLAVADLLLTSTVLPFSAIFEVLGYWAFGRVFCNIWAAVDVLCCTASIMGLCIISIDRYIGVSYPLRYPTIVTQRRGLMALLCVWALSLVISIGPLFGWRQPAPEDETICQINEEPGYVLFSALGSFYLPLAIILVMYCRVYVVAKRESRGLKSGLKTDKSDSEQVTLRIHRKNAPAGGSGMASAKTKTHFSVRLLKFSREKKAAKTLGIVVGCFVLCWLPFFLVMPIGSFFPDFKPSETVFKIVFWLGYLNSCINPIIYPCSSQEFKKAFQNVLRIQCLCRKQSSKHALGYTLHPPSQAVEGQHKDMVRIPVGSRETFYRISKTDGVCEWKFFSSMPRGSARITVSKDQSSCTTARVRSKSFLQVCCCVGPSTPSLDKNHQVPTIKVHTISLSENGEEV

[3] = molecular target: 5-hydroxytryptamine receptor 2A (Homo sapiens, UniProt P28223); assay type: functional, cell-based
Chain of 5-hydroxytryptamine receptor 2A (P28223 whole entry): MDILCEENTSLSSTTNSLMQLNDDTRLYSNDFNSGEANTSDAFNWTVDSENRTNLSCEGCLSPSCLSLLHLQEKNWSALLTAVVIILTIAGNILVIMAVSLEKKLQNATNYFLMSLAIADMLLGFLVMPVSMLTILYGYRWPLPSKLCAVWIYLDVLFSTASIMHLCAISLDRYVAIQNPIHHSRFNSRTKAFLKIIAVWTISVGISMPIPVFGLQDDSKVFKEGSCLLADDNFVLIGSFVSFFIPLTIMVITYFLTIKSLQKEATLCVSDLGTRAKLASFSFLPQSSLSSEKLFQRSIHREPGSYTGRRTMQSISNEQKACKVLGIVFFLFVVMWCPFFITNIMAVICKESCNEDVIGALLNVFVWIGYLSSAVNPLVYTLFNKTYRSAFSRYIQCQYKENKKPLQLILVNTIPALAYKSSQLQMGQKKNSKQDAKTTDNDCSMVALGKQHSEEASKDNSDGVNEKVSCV

[4] = molecular target: Muscarinic acetylcholine receptor M3 (Homo sapiens, UniProt P20309)
Chain of Muscarinic acetylcholine receptor M3 (P20309 whole entry): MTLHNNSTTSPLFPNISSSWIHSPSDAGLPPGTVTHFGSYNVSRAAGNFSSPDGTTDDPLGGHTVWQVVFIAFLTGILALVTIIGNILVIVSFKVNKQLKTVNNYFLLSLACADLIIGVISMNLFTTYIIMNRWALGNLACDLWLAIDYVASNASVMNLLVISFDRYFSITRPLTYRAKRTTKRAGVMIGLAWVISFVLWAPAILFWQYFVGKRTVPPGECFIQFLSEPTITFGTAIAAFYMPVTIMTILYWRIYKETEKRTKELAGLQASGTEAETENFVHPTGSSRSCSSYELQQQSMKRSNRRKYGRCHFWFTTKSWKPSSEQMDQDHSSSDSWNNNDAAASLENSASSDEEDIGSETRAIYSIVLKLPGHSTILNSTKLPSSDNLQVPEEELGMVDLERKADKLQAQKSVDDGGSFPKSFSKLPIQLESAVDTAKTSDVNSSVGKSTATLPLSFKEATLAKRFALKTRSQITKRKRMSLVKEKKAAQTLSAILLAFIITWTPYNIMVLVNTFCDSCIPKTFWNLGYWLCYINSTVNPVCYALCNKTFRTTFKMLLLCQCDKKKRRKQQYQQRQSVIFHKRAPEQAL
Also: assay procedure not described here.

SMILES | AC50 (Adenosine receptor A1) | AC50 [1] | AC50 [2] | AC50 [3] | AC50 [4]
COCC1=C(C(=O)OC(C)OC(=O)OC(C)C)N2C(=O)[C@@H](NC(=O)/C(=N\OC)c3csc(N)n3)[C@H]2SC1 (stereo not given in full) [CEFPODOXIME PROXETIL] | > 30 µM | > 30 µM | > 30 µM | > 30 µM | > 30 µM
NS(=O)(=O)c1cc2c(cc1Cl)NC(CC1CCCC1)NS2(=O)=O (stereo not given) [CYCLOPENTHIAZIDE] | > 30 µM | > 30 µM | > 30 µM | > 30 µM | > 30 µM
N/N=c1/cc2c(n[nH]1)CCN(C(=O)c1ccccc1)C2 [ENDRALAZINE] | > 30 µM | > 30 µM | > 30 µM | > 30 µM | > 30 µM
CN1C(=O)N(C)C2C1N(C)C(=O)N2C (stereo not given) [MEBICAR] | > 30 µM | > 30 µM | > 30 µM | > 30 µM | > 30 µM
Nc1ccc(/N=N/c2ccccc2)c(N)n1 [PHENAZOPYRIDINE] | 13.1 µM | > 30 µM | 23.4 µM | > 30 µM | 3.6 µM
